# Columns and labels:
# B16 mouse melanoma cells = test: Melanin synthesis in B16 mouse melanoma cells (cell based assay); details: 6.25 micromolar, 72 hours, melanin in medium read at 530-nm, read-out: % of Control (Melanin Synthesis)
# Description: This experiment was carried out using a cell based assay.
# B16 mouse melanoma cells were utilized in the following experiment to evaluate the efficacy of skin lightening agents. B16 cells were plated in 96-well microtiter plates at a density of 5000 cells per well and cultured overnight in Dulbecco's Modified Eagle's Medium (phenol red free) containing 10% fetal bovine serum and 1% penicillin/streptomycin at 37° C. in the presence of 5% CO2. After 24 hours, the medium was replaced with fresh growth medium containing the treatments. All cultures were incubated for 72 hours at which time melanin was visible in the control treatment. The melanin-containing medium was transferred to a clean 96-well plate and quantified by reading the absorbency at 530-nm. Cell viability was assessed by measurement of lactate dehydrogenase levels to ensure the decrease in melanin was not a result of cellular toxicity.
# mushroom tyrosinase = test: Mushroom Tyrosinase Assay; format: biochemical; details: for tyrosinase activity, % of ethanol control: slope of 475-nm absorbency vs. untreated ethanol control, L-DOPA substrate
# Description: Mushroom tyrosinase inhibition is indicative of reduction in melanin synthesis, thereby showing skin lightening effect.
# Into each well of a 96-well plate, 150 microliters of phosphate buffer (100 mM, pH 7.0), 10 microliters of L-DOPA (L-3, 4-Dihydroxyphenylalanine, 10 mM), and 20 microliters of skin lightening agent (dissolved in ethanol, which is the control) were added. Following an initial measurement of background absorbency at 475-nm, 20 microliters of mushroom tyrosinase (Sigma T-7755; 6050 units/ml) was added and incubated at room temperature.
# Absorbency is read at 475-nm over the following time points: 0, 2, 4, and 6.5 minutes. The data is plotted as 475-nm absorbency vs. time (minutes) and the slope of the line is calculated (ΔAbs 475 nm/min). Values are expressed as the percentage of the respective untreated ethanol control reaction. [formula]
SMILES,activity at 6.25 µM (B16 mouse melanoma cells),"tyrosinase activity, % of ethanol control (mushroom tyrosinase; 0.1 uM)","tyrosinase activity, % of ethanol control (mushroom tyrosinase; 1 uM)","tyrosinase activity, % of ethanol control (mushroom tyrosinase; 10 uM)","tyrosinase activity, % of ethanol control (mushroom tyrosinase; 100 uM)","skin lightening effectiveness (in words, from tyrosinase data) (mushroom tyrosinase; conclusion drawn from Table 8)"
CCc1ccc(O)cc1O [4-Ethyl Resorcinol],15.6%,72.7 % of Control,46.3 % of Control,30.8 % of Control,20.7 % of Control,–
"O=c1ccc2ccc(O)cc2o1 [7-Hydroxy Coumarin, 7-hydroxy coumarin]",–,104 % of Control,100 % of Control,108 % of Control,117 % of Control,effective in skin lightening
CNC(=O)/C=C\c1ccc(O)cc1O [Resorcinol Amide 1],13.1%,75.1 % of Control,51.0 % of Control,53.0 % of Control,53.4 % of Control,–
COCCNC(=O)/C=C\c1ccc(O)cc1O [Resorcinol Amide 2],13.7%,84.2 % of Control,59.5 % of Control,58.0 % of Control,57.9 % of Control,–

# Reference: US6852310B2, “Skin lightening agents, compositions and methods” (Unilever Home & Personal Care USA division of Conopco, Inc., priority 2002, dated 2005)
